Values quoted from earlier work in EP3263095A1, “A PHARMACEUTICAL FORMULATION OF OLAPARIB” (Zentiva K.S., priority 2016, dated 2018).

Settings: EMA/CHMP/789139/2014

Group of the Biopharmaceutical Classification System (low solubility and bioavailability): Group 4
Structure (SMILES): O=C(c1cc(Cc2n[nH]c(=O)c3ccccc23)ccc1F)N1CCN(C(=O)C2CC2)CC1 [olaparib, 4-[(3-[(4-cyclopropylcarbonyl)piperazin-4-yl]carbonyl)-4-fluorophenyl]methyl(2H)-phtalazin-1-one]
